In ChEMBL document CHEMBL1201862, “PubChem BioAssay data set” (2004):
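Exposure lasted 48 hours, with cells grown in 96-well plates and compounds tested at five concentrations. The concentration for 50% growth inhibition is given as GI50.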 The source made the active and inactive calls. Rule as the data show it: active = GI50 up to about 1.1 µM and inactive = higher.

Key:
Assay in all cases: NCI-60 cell line screen, 48 h
[1] = system: OVCAR-5
[2] = system: OVCAR-8
[3] = system: SK-MEL-2
[4] = system: SK-OV-3
[5] = system: CAKI-1
[6] = system: HT-29
[7] = system: BT-549
[8] = system: KM12
[9] = system: UO-31
[10] = system: HCT-116
[11] = system: MDA-MB-435
[12] = system: SW-620
[13] = system: U-251
[14] = system: NCI/ADR-RES
[15] = system: SK-MEL-28
[16] = system: SK-MEL-5
[17] = system: EKVX
[18] = system: Malme-3M
[19] = system: SF-268
[20] = system: UACC-62
[21] = system: SF-295
[22] = system: SN12C
[23] = system: SNB-19
[24] = system: ACHN
[25] = system: NCI-H522
[26] = system: RPMI-8226
[27] = system: A498
[28] = system: A549
[29] = system: TK-10
[30] = system: 786-0
[31] = system: HL-60
[32] = system: T47D
[33] = system: SNB-75
[34] = system: MDA-N
[35] = system: CCRF-CEM
[36] = system: HOP-92
[37] = system: OVCAR-4
[38] = system: HOP-62
[39] = system: LOX IMVI
[40] = system: OVCAR-3
[41] = system: MDA-MB-231
[42] = system: NCI-H23
[43] = system: SR
[44] = system: DU-145
[45] = system: PC-3
[46] = system: HCT-15
[47] = system: MCF7
[48] = system: RXF 393
[49] = system: M14
[50] = system: NCI-H460
[51] = system: COLO 205
[52] = system: IGROV-1
[53] = system: K562
[54] = system: NCI-H226
[55] = system: Hs-578T
[56] = system: MOLT-4
[57] = system: UACC-257
[58] = system: HCC 2998
[59] = system: SF-539

## CC(O)(CNS(=O)(=O)c1ccccc1)c1ccccc1 (stereo not drawn)
[1]
  GI50: > 100 µM (inactive)
[2]
  GI50: > 100 µM (inactive)
[3]
  GI50: > 100 µM (inactive)
[4]
  GI50: > 100 µM (inactive)
[5]
  GI50: > 100 µM (inactive)
[6]
  GI50: > 100 µM (inactive)
[7]
  GI50: > 100 µM (inactive)
[8]
  GI50: > 100 µM (inactive)
[9]
  GI50: > 100 µM (inactive)
[10]
  GI50: > 100 µM (inactive)
[11]
  GI50: > 100 µM (inactive)
[12]
  GI50: > 100 µM (inactive)
[13]
  GI50: > 100 µM (inactive)
[14]
  GI50: > 100 µM (inactive)
[15]
  GI50: > 100 µM (inactive)
[16]
  GI50: > 100 µM (inactive)
[17]
  GI50: > 100 µM (inactive)
[18]
  GI50: > 100 µM (inactive)
[19]
  GI50: > 100 µM (inactive)
[20]
  GI50: > 100 µM (inactive)
[21]
  GI50: > 100 µM (inactive)
[22]
  GI50: > 100 µM (inactive)
[23]
  GI50: > 100 µM (inactive)
[24]
  GI50: > 100 µM (inactive)
[25]
  GI50: > 100 µM (inactive)
[26]
  GI50: > 100 µM (inactive)
[27]
  GI50: > 100 µM (inactive)
[28]
  GI50: > 100 µM (inactive)
[29]
  GI50: > 100 µM (inactive)
[30]
  GI50: > 100 µM (inactive)
[31]
  GI50: > 100 µM (inactive)
[32]
  GI50: > 100 µM (inactive)
[33]
  GI50: > 100 µM (inactive)
[34]
  GI50: > 100 µM (inactive)
[35]
  GI50: > 100 µM (inactive)
[36]
  GI50: > 100 µM (inactive)
[37]
  GI50: > 100 µM (inactive)
[38]
  GI50: > 100 µM (inactive)
[39]
  GI50: > 100 µM (inactive)
[40]
  GI50: > 100 µM (inactive)
[41]
  GI50: > 100 µM (inactive)
[42]
  GI50: > 100 µM (inactive)
[43]
  GI50: > 100 µM (inactive)
[44]
  GI50: > 100 µM (inactive)
[45]
  GI50: > 100 µM (inactive)
[46]
  GI50: > 100 µM
[47]
  GI50: > 100 µM (inactive)
[48]
  GI50: > 100 µM (inactive)
[49]
  GI50: > 100 µM (inactive)
[50]
  GI50: > 100 µM (inactive)
[51]
  GI50: > 100 µM (inactive)
[52]
  GI50: > 100 µM (inactive)
[53]
  GI50: > 100 µM (inactive)
[54]
  GI50: > 100 µM (inactive)
[55]
  GI50: > 100 µM (inactive)

## COc1cc2nc(-c3ccccc3)cc(O)c2c(OC)c1OC
[1]
  GI50: > 100 µM (inactive)
[2]
  GI50: > 100 µM (inactive)
[3]
  GI50: > 100 µM (inactive)
[4]
  GI50: > 100 µM (inactive)
[56]
  GI50: > 100 µM (inactive)
[57]
  GI50: > 100 µM (inactive)
[6]
  GI50: > 100 µM (inactive)
[7]
  GI50: > 100 µM (inactive)
[8]
  GI50: > 100 µM (inactive)
[9]
  GI50: 98.4 µM (inactive)
[10]
  GI50: > 100 µM (inactive)
[11]
  GI50: > 100 µM (inactive)
[12]
  GI50: > 100 µM (inactive)
[13]
  GI50: > 100 µM (inactive)
[14]
  GI50: > 100 µM (inactive)
[15]
  GI50: > 100 µM (inactive)
[16]
  GI50: > 100 µM (inactive)
[17]
  GI50: > 100 µM (inactive)
[18]
  GI50: > 100 µM (inactive)
[19]
  GI50: > 100 µM (inactive)
[58]
  GI50: > 100 µM (inactive)
[20]
  GI50: > 100 µM (inactive)
[21]
  GI50: > 100 µM (inactive)
[22]
  GI50: > 100 µM (inactive)
[23]
  GI50: > 100 µM (inactive)
[24]
  GI50: > 100 µM (inactive)
[25]
  GI50: > 100 µM (inactive)
[26]
  GI50: > 100 µM (inactive)
[27]
  GI50: > 100 µM (inactive)
[28]
  GI50: > 100 µM (inactive)
[29]
  GI50: > 100 µM (inactive)
[30]
  GI50: > 100 µM (inactive)
[31]
  GI50: > 100 µM (inactive)
[32]
  GI50: 34.1 µM (inactive)
[33]
  GI50: > 100 µM (inactive)
[34]
  GI50: > 100 µM (inactive)
[35]
  GI50: > 100 µM (inactive)
[37]
  GI50: > 100 µM (inactive)
[38]
  GI50: > 100 µM (inactive)
[39]
  GI50: > 100 µM (inactive)
[40]
  GI50: > 100 µM (inactive)
[41]
  GI50: 61 µM (inactive)
[42]
  GI50: > 100 µM (inactive)
[43]
  GI50: > 100 µM (inactive)
[44]
  GI50: > 100 µM (inactive)
[45]
  GI50: > 100 µM (inactive)
[46]
  GI50: > 100 µM
[47]
  GI50: 67.1 µM (inactive)
[48]
  GI50: > 100 µM (inactive)
[49]
  GI50: > 100 µM (inactive)
[50]
  GI50: > 100 µM (inactive)
[51]
  GI50: > 100 µM (inactive)
[52]
  GI50: > 100 µM (inactive)
[53]
  GI50: > 100 µM (inactive)
[54]
  GI50: > 100 µM (inactive)
[55]
  GI50: > 100 µM (inactive)

## O=C(C/N=C(\CN(c1ccccc1)c1ccccc1)Oc1c(Cl)cc(Cl)cc1Cl)n1cnc2ccccc21
[1]
  GI50: 28 µM (inactive)
[2]
  GI50: 35.3 µM (inactive)
[4]
  GI50: > 100 µM (inactive)
[56]
  GI50: 18.1 µM (inactive)
[57]
  GI50: > 100 µM (inactive)
[6]
  GI50: 44.2 µM (inactive)
[7]
  GI50: 22.6 µM (inactive)
[8]
  GI50: 96.6 µM (inactive)
[10]
  GI50: 34 µM (inactive)
[11]
  GI50: 76.6 µM (inactive)
[12]
  GI50: 81.7 µM (inactive)
[13]
  GI50: 82.6 µM (inactive)
[14]
  GI50: 38.3 µM (inactive)
[15]
  GI50: > 100 µM (inactive)
[16]
  GI50: 76 µM (inactive)
[17]
  GI50: 50.7 µM (inactive)
[18]
  GI50: 52.6 µM (inactive)
[59]
  GI50: > 100 µM (inactive)
[19]
  GI50: > 100 µM (inactive)
[58]
  GI50: 71.6 µM (inactive)
[20]
  GI50: 32.3 µM (inactive)
[21]
  GI50: > 100 µM (inactive)
[22]
  GI50: 56.2 µM (inactive)
[23]
  GI50: > 100 µM (inactive)
[24]
  GI50: 78.2 µM (inactive)
[25]
  GI50: 84.1 µM (inactive)
[26]
  GI50: 44.6 µM (inactive)
[28]
  GI50: > 100 µM (inactive)
[29]
  GI50: > 100 µM (inactive)
[30]
  GI50: > 100 µM (inactive)
[31]
  GI50: 32.7 µM (inactive)
[32]
  GI50: 33.3 µM (inactive)
[33]
  GI50: > 100 µM (inactive)
[34]
  GI50: 59.8 µM (inactive)
[35]
  GI50: 33.8 µM (inactive)
[36]
  GI50: 59.6 µM (inactive)
[37]
  GI50: > 100 µM (inactive)
[38]
  GI50: > 100 µM (inactive)
[40]
  GI50: 32.5 µM (inactive)
[41]
  GI50: 74 µM (inactive)
[42]
  GI50: > 100 µM (inactive)
[43]
  GI50: 33.9 µM (inactive)
[44]
  GI50: > 100 µM (inactive)
[45]
  GI50: 27.5 µM (inactive)
[46]
  GI50: 43.8 µM
[47]
  GI50: 71 µM (inactive)
[48]
  GI50: < 0.01 µM (active)
[49]
  GI50: > 100 µM (inactive)
[50]
  GI50: > 100 µM (inactive)
[51]
  GI50: > 100 µM (inactive)
[52]
  GI50: 39.6 µM (inactive)
[53]
  GI50: 80.7 µM (inactive)
[54]
  GI50: 19.5 µM (inactive)
[55]
  GI50: > 100 µM (inactive)

## O=C(c1ccco1)N(Cc1ccco1)C(=S)Nc1ccccc1
[1]
  GI50: 36.5 µM (inactive)
[2]
  GI50: 19 µM (inactive)
[3]
  GI50: 18.8 µM (inactive)
[4]
  GI50: > 100 µM (inactive)
[5]
  GI50: 7.08 µM (inactive)
[56]
  GI50: 7.08 µM (inactive)
[57]
  GI50: 15.7 µM (inactive)
[6]
  GI50: 8.71 µM (inactive)
[7]
  GI50: 17.2 µM (inactive)
[8]
  GI50: 8.2 µM (inactive)
[9]
  GI50: 16.5 µM (inactive)
[10]
  GI50: 6.37 µM (inactive)
[11]
  GI50: 10.6 µM (inactive)
[12]
  GI50: 12.4 µM (inactive)
[13]
  GI50: 28.3 µM (inactive)
[14]
  GI50: 21.9 µM (inactive)
[15]
  GI50: 15 µM (inactive)
[16]
  GI50: 17.5 µM (inactive)
[17]
  GI50: 45.9 µM (inactive)
[18]
  GI50: 14.7 µM (inactive)
[59]
  GI50: 6.46 µM (inactive)
[19]
  GI50: 20.2 µM (inactive)
[58]
  GI50: 33.1 µM (inactive)
[20]
  GI50: 14.1 µM (inactive)
[21]
  GI50: 32.2 µM (inactive)
[22]
  GI50: 14.5 µM (inactive)
[23]
  GI50: 46.9 µM (inactive)
[24]
  GI50: 19.5 µM (inactive)
[25]
  GI50: 16.9 µM (inactive)
[26]
  GI50: 3.1 µM (inactive)
[28]
  GI50: 29.7 µM (inactive)
[29]
  GI50: 18.8 µM (inactive)
[30]
  GI50: 6.3 µM (inactive)
[31]
  GI50: 1.79 µM (inactive)
[32]
  GI50: 14.1 µM (inactive)
[33]
  GI50: 18.5 µM (inactive)
[34]
  GI50: 10.5 µM (inactive)
[35]
  GI50: 3.79 µM (inactive)
[36]
  GI50: 7.53 µM (inactive)
[37]
  GI50: 25.6 µM (inactive)
[38]
  GI50: 36.6 µM (inactive)
[39]
  GI50: 7.21 µM (inactive)
[40]
  GI50: 15.7 µM (inactive)
[41]
  GI50: 13.3 µM (inactive)
[42]
  GI50: 13.5 µM (inactive)
[43]
  GI50: 3.1 µM (inactive)
[44]
  GI50: 33.2 µM (inactive)
[45]
  GI50: 30.5 µM (inactive)
[46]
  GI50: 9.2 µM
[47]
  GI50: 4.2 µM (inactive)
[48]
  GI50: 16 µM (inactive)
[49]
  GI50: 12 µM (inactive)
[50]
  GI50: 49.1 µM (inactive)
[51]
  GI50: 12.9 µM (inactive)
[52]
  GI50: 16.1 µM (inactive)
[53]
  GI50: 3.33 µM (inactive)
[54]
  GI50: 66.8 µM (inactive)
[55]
  GI50: 19.3 µM (inactive)
